# Target: recombinant Human Phosphodiesterase B2 (PDE4B2) (Homo sapiens, UniProt Q07343)
# Assay: Human Phosphodiesterase B2 Radiometric Assay
# Assay type: biochemical
# Details: 0.1 μg/mL recombinant PDE4B2; preincubated at 30 C for 30 min; [3H]cyclic AMP 8 nM, stopped after 20 min; yttrium silicate SPA beads; read-out: PDE4B2 pIC50 (converted)
# Method in brief: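 Compounds preincubated 30 min at 30 C with 0.1 μg/mL recombinant PDE4B2 in 50 mM HEPES pH 7.5, 8.3 mM MgCl2, 1.7 mM EGTA, 0.01% Brij 35.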
# recombinant Human Phosphodiesterase B2 (PDE4B2), sequence (Q07343 1-564 isoform Q07343-2): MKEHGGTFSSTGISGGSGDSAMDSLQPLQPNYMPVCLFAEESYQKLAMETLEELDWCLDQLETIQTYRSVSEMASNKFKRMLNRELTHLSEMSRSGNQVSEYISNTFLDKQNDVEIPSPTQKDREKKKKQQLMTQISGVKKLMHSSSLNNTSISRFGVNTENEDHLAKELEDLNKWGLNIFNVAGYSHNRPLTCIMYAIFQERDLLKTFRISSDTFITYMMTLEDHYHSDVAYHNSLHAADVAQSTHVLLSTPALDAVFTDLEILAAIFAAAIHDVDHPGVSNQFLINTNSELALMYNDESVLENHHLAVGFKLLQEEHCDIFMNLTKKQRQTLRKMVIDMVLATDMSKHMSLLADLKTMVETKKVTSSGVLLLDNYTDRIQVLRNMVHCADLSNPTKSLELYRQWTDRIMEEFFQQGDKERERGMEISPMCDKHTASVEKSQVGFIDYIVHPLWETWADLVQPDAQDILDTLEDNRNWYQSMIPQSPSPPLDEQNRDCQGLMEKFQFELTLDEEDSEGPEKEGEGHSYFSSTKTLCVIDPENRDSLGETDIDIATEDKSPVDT
row,SMILES,IC50 [nM]
1,"Cc1cc(C(=O)N[C@H]2CC[C@@H](NC(=O)c3cc(F)cnc3Oc3cccc(-c4ccc(CCN5CCC(N6CCCC6)CC5)cc4)c3)CC2)nn1C [Example 154, N-((1s,4s)-4-(1,5-dimethyl-1H-pyrazole-3-carboxamido)cyclohexyl)-5-fluoro-2-(4′-(2-(4-(pyrrolidin-1-yl)piperidin-1-yl)ethyl)biphenyl-3-yloxy)nicotinamide]",0.0316
2,"C[C@@H]1CN(CCCc2ccc(-c3cccc(Oc4ncc(F)cc4C(=O)N[C@H]4CC[C@@H](NC(=O)c5cscn5)CC4)c3)cc2)C[C@H](C)N1 [Example 155, N-((1s,4s)-4-(2-(4′-(3-((3S,5R)-3,5-dimethylpiperazin-1-yl)propyl)biphenyl-3-yloxy)-5-fluoronicotinamido)cyclohexyl)thiazole-4-carboxamide]",0.0398
3,"Cc1cc(C(=O)N[C@H]2CC[C@@H](NC(=O)c3cc(F)cnc3Oc3cccc(-c4ccc(CCCN5C[C@@H](C)N[C@@H](C)C5)cc4)c3)CC2)[nH]n1 [Example 156, 2-(4′-(3-((3S,5R)-3,5-Dimethylpiperazin-1-yl)propyl)biphenyl-3-yloxy)-5-fluoro-N-((1s,4s)-4-(3-methyl-1H-pyrazole-5-carboxamido)cyclohexyl)nicotinamide]",0.126
4,"Cc1cc(C(=O)N[C@H]2CC[C@@H](NC(=O)c3cc(F)cnc3Oc3cccc(-c4ccc(CCCN5CCNCC5)cc4)c3)CC2)n[nH]1 [Example 157, 5-Fluoro-N-((1s,4s)-4-(5-methyl-1H-pyrazole-3-carboxamido)cyclohexyl)-2-(4′-(3-(piperazin-1-yl)propyl)biphenyl-3-yloxy)nicotinamide]",0.0794
5,"Cc1cccc(C(=O)N[C@H]2CC[C@@H](NC(=O)c3cc(F)cnc3Oc3cccc(-c4ccc(CCCNCCCO)cc4)c3)CC2)n1 [Example 158, N-((1s,4s)-4-(5-Fluoro-2-(4′-(3-(3-hydroxypropylamino)propyl)biphenyl-3-yloxy)nicotinamido)cyclohexyl)-6-methylpicolinamide]",0.0316
6,"O=C(N[C@H]1CC[C@@H](NC(=O)c2cc(F)cnc2Oc2cccc(-c3ccc(CCCNCCCO)cc3)c2)CC1)c1cc2ccccn2n1 [Example 159, N-((1s,4s)-4-(5-Fluoro-2-(4′-(3-(3-hydroxypropylamino)propyl)biphenyl-3-yloxy)nicotinamido)cyclohexyl)pyrazolo[1,5-a]pyridine-2-carboxamide]",0.0501
7,"Cn1nc(C(=O)N[C@H]2CC[C@@H](NC(=O)c3cc(F)cnc3Oc3cccc(-c4ccc(CCCN5CCNCC5)cc4)c3)CC2)cc1C(F)(F)F [Example 160, 5-Fluoro-N-((1s,4s)-4-(1-methyl-5-(trifluoromethyl)-1H-pyrazole-3-carboxamido)cyclohexyl)-2-(4′-(3-(piperazin-1-yl)propyl)biphenyl-3-yloxy)nicotinamide]",0.01
8,"O=C(N[C@H]1CC[C@@H](NC(=O)c2cccc3cccnc23)CC1)c1cc(F)cnc1Oc1cccc(-c2ccc(CCCNCCCO)cc2)c1 [Example 161, N-((1s,4s)-4-(5-Fluoro-2-(4′-(3-(3-hydroxypropylamino)propyl)biphenyl-3-yloxy)nicotinamido)cyclohexyl)quinoline-8-carboxamide]",0.0126
9,"C[C@@H]1CN(CCc2ccc(-c3cccc(Oc4ncc(F)cc4C(=O)N[C@H]4CC[C@@H](NC(=O)c5cc6n(n5)CCCC6)CC4)c3)cc2)C[C@H](C)N1 [Example 162, N-((1s,4s)-4-(2-(4′-(2-((3S,5R)-3,5-Dimethylpiperazin-1-yl)ethyl)biphenyl-3-yloxy)-5-fluoronicotinamido)cyclohexyl)-4,5,6,7-tetrahydropyrazolo[1,5-a]pyridine-2-carboxamide]",0.0398
10,"C[C@@H]1CN(CCc2ccc(-c3cccc(Oc4ncc(F)cc4C(=O)N[C@H]4CC[C@@H](NC(=O)c5ccn(C)n5)CC4)c3)cc2)C[C@H](C)N1 [Example 163, 2-(4′-(2-((3S,5R)-3,5-Dimethylpiperazin-1-yl)ethyl)biphenyl-3-yloxy)-5-fluoro-N-((1s,4s)-4-(1-methyl-1H-pyrazole-3-carboxamido)cyclohexyl)nicotinamide]",0.0398
11,"C[C@@H]1CN(CCCc2ccc(-c3cccc(Oc4ncc(F)cc4C(=O)N[C@H]4CC[C@@H](NC(=O)c5ccn(C)n5)CC4)c3)cc2)C[C@H](C)N1 [Example 165, 2-(4′-(3-((3S,5R)-3,5-Dimethylpiperazin-1-yl)propyl)biphenyl-3-yloxy)-5-fluoro-N-((1s,4s)-4-(1-methyl-1H-pyrazole-3-carboxamido)cyclohexyl)nicotinamide]",0.0631
12,"Cc1cc(C(=O)N[C@H]2CC[C@@H](NC(=O)c3cc(F)cnc3Oc3cccc(-c4ccc(CCN5CCCN(C)CC5)cc4)c3)CC2)nn1C [Example 166, N-((1s,4s)-4-(1,5-Dimethyl-1H-pyrazole-3-carboxamido)cyclohexyl)-5-fluoro-2-(4′-(2-(4-methyl-1,4-diazepan-1-yl)ethyl)biphenyl-3-yloxy)nicotinamide]",0.0398
13,"Cc1cc(C(=O)N[C@H]2CC[C@@H](NC(=O)c3cc(F)cnc3Oc3cccc(-c4ccc(CCN5CCN(C)CC5)cc4)c3)CC2)nn1C [Example 167, N-((1s,4s)-4-(1,5-Dimethyl-1H-pyrazole-3-carboxamido)cyclohexyl)-5-fluoro-2-(4′-(2-(4-methylpiperazin-1-yl)ethyl)biphenyl-3-yloxy)nicotinamide]",0.0501
14,"C[C@@H]1CN(CCCc2ccc(-c3cccc(Oc4ncc(F)cc4C(=O)N[C@H]4CC[C@@H](NC(=O)c5cc6n(n5)CCCO6)CC4)c3)cc2)C[C@H](C)N1 [Example 168, N-((1s,4s)-4-(2-(4′-(3-((3S,5R)-3,5-Dimethylpiperazin-1-yl)propyl)biphenyl-3-yloxy)-5-fluoronicotinamido)cyclohexyl)-6,7-dihydro-5H-pyrazolo[5,1-b][1,3]oxazine-2-carboxamide]",0.0501
15,"C[C@@H]1CN(Cc2ccc(-c3cccc(Oc4ncc(F)cc4C(=O)N[C@H]4CC[C@@H](NC(=O)c5cn6cc(F)ccc6n5)CC4)c3)c(CN3CCSCC3)c2)C[C@H](C)N1 [Example 169, N-((1s,4s)-4-(2-(4′-(((3S,5R)-3,5-Dimethylpiperazin-1-yl)methyl)-2′-(thiomorpholinomethyl)biphenyl-3-yloxy)-5-fluoronicotinamido)cyclohexyl)-6-fluoroimidazo[1,2-a]pyridine-2-carboxamide]",0.02
16,"O=C(N[C@H]1CC[C@@H](NC(=O)c2cc(F)cnc2Oc2cccc(-c3ccc(CN4CCSCC4)cc3CN3CCOCC3)c2)CC1)c1csc(CO)n1 [Example 170, N-((1s,4s)-4-(5-Fluoro-2-(2′-(morpholinomethyl)-4′-(thiomorpholinomethyl)biphenyl-3-yloxy)nicotinamido)cyclohexyl)-2-(hydroxymethyl)thiazole-4-carboxamide]",0.0501
17,"CN1CCCN(CCc2ccc(-c3cccc(Oc4ncc(F)cc4C(=O)N[C@H]4CC[C@@H](NC(=O)c5cc6n(n5)CCCC6)CC4)c3)cc2)CC1 [Example 171, N-((1s,4s)-4-(5-Fluoro-2-(4′-(2-(4-methyl-1,4-diazepan-1-yl)ethyl)biphenyl-3-yloxy)nicotinamido)cyclohexyl)-4,5,6,7-tetrahydropyrazolo[1,5-a]pyridine-2-carboxamide]",0.0794
18,"C[C@@H]1CN(CCCc2cccc(-c3cccc(Oc4ncc(F)cc4C(=O)N[C@H]4CC[C@@H](NC(=O)c5cc6n(n5)CCC6)CC4)c3)c2)C[C@H](C)N1 [Example 172, N-((1s,4s)-4-(2-(3′-(3-((3S,5R)-3,5-Dimethylpiperazin-1-yl)propyl)biphenyl-3-yloxy)-5-fluoronicotinamido)cyclohexyl)-5,6-dihydro-4H-pyrrolo[1,2-b]pyrazole-2-carboxamide]",0.0631
19,"O=C(N[C@H]1CC[C@@H](NC(=O)c2cc(F)cnc2Oc2cccc(-c3ccc(CCCN4CCNCC4)cc3)c2)CC1)c1cc(C2CC2)n[nH]1 [Example 173, N-((1s,4s)-4-(3-Cyclopropyl-1H-pyrazole-5-carboxamido)cyclohexyl)-5-fluoro-2-(4′-(3-(piperazin-1-yl)propyl)biphenyl-3-yloxy)nicotinamide]",0.0398
20,"C[C@@H]1CN(CCCc2cccc(-c3cccc(Oc4ncc(F)cc4C(=O)N[C@H]4CC[C@@H](NC(=O)c5cc6n(n5)CCCC6)CC4)c3)c2)C[C@H](C)N1 [Example 174, N-((1s,4s)-4-(2-(3′-(3-((3S,5R)-3,5-Dimethylpiperazin-1-yl)propyl)biphenyl-3-yloxy)-5-fluoronicotinamido)cyclohexyl)-4,5,6,7-tetrahydropyrazolo[1,5-a]pyridine-2-carboxamide]",0.1
21,"Cc1cccc2nc(C(=O)N[C@H]3CC[C@@H](NC(=O)c4cc(F)cnc4Oc4cccc(-c5ccc(CN6C[C@@H](C)N[C@@H](C)C6)cc5CN5CCOC[C@@H]5C)c4)CC3)cn12 [Example 175, N-((1s,4s)-4-(2-(4′-(((3S,5R)-3,5-Dimethylpiperazin-1-yl)methyl)-2′-(((S)-3-methylmorpholino)methyl)biphenyl-3-yloxy)-5-fluoronicotinamido)cyclohexyl)-5-methylimidazo[1,2-a]pyridine-2-carboxamide]",0.02
22,"Cn1nc(C(=O)N[C@H]2CC[C@@H](NC(=O)c3cc(F)cnc3Oc3cccc(-c4ccc(CCN5CCNCC5)cc4)c3)CC2)cc1C(F)(F)F [Example 176, 5-Fluoro-N-((1s,4s)-4-(1-methyl-5-(trifluoromethyl)-1H-pyrazole-3-carboxamido)cyclohexyl)-2-(4′-(2-(piperazin-1-yl)ethyl)biphenyl-3-yloxy)nicotinamide]",0.0501
23,"Cc1nc(C(=O)N[C@H]2CC[C@@H](NC(=O)c3cc(F)cnc3Oc3cccc(-c4ccc(CCN5CCNCC5)cc4)c3)CC2)cs1 [Example 177, N-((1s,4s)-4-(5-Fluoro-2-(4′-(2-(piperazin-1-yl)ethyl)biphenyl-3-yloxy)nicotinamido)cyclohexyl)-2-methylthiazole-4-carboxamide]",0.0501
